Source: ChEMBL document CHEMBL1134225, “Potent synthetic inhibitors of tyrosyl tRNA synthetase derived from C-pyranosyl analogues of SB-219383” (Bioorg Med Chem Lett, 2001)
Values belong to the compound of their own block, whether it stands above or below them.

What was measured:
[1] = Inhibitory activity (3 uM) against Staphylococcus aureus tyrosyl tRNA synthetase (YRS) using aminoacylation assay
[2] = Inhibitory activity against Staphylococcus aureus tyrosyl tRNA synthetase (YRS) using aminoacylation assay; NI = No inhibition
[3] = Inhibitory activity against Staphylococcus aureus tyrosyl tRNA synthetase (YRS) using aminoacylation assay

inhibition [1]: 71%
SMILES: N[C@@H](Cc1ccc(O)cc1)C(=O)N[C@H](C(=O)O)[C@@H]1OC[C@H](O)[C@@H](O)[C@H]1O

IC50 [2]: Not Active
SMILES: N[C@@H](Cc1ccc(O)cc1)C(=O)NC(C(=O)O)[C@@H]1O[C@H](CO)[C@@H](O)[C@H](O)[C@H]1O (stereo partly drawn)

IC50 [3]: 0.1 µM
SMILES: N[C@@H](Cc1ccc(O)cc1)C(=O)N[C@H](C(=O)O)[C@@H]1OC[C@H](O)[C@H](O)[C@H]1O
